Counter-ions that a name gives are not always drawn.
How the values were obtained:
[1] = tested on: Trx9 cells (MCF-7 clones expressing thioredoxin); assay: In situ detection of ROS by DCF-DA fluorescence; type: cell-based, human; settings: Trx9 compared to vector cells
Protocol: In situ detection of superoxide by fluorescent probe DiCarboxyFluorescein-DiAcetate (DCF-DA). Cells were grown in chambered glass slides (Nunc) to a final density of 25,000 cells per well.

[2] = molecular target: T1, cytochrome P450 reductase (Oryctolagus cuniculus, UniProt P00389); assay: Cytochrome P450 reductase mediated SOD-inhibitable superoxide generation; type: biochemical, rabbit; settings: 10 μM doxorubicin, Trx-SH alone as electron donor, absence of NADPH
T1 construct: purchased Sigma Chemicals (St. Louis, Mo.); host or cells: rabbit liver
T1 sequence (P00389 1-679): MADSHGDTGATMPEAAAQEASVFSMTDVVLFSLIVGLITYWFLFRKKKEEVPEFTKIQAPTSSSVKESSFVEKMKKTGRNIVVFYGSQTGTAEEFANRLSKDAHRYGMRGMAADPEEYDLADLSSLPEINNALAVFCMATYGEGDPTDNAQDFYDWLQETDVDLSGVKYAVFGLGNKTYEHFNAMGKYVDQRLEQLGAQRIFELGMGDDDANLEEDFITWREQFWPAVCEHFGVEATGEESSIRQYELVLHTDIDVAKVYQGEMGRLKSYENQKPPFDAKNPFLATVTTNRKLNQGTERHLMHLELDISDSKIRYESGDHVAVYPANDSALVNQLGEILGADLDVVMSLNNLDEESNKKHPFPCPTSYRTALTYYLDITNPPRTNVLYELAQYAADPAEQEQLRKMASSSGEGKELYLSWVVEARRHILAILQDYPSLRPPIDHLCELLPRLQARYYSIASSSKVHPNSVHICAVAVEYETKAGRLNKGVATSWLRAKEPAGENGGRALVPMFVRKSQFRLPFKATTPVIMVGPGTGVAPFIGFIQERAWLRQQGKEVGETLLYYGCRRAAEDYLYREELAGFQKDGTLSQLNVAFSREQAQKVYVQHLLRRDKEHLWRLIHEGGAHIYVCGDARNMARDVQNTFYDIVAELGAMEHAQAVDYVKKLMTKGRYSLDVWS
Protocol: Superoxide detection by cytochrome c reduction assay. Superoxide (O2—) generated in the process of redox-cycling was detected by SOD inhibitable rate of ferricytochrome c reduction (Das et al., 2000). […] Reaction blank contained potassium phosphate buffer, cytochrome c and NADPH with or without SOD, and controls included 0.35-0.7 μg TR and /or Trx in buffer. All reactions were performed in triplicate.

[3] = tested on: Trx9 cells (MCF-7 clones expressing thioredoxin); assay: Superoxide production in cell lysate by SOD-inhibitable reduction of ferricytochrome c; type: biochemical, human; settings: Trx9 compared to vector-transfected cells; 10 μM drug
Protocol: Determination of superoxide production by reduction of ferricytochrome c. Superoxide production was measured as superoxide dismutase (SOD) inhibitable reduction of ferricytochrome c (Azzi et al. 1975). Cells were sonicated in potassium phosphate buffer (0.05M, pH 7.8 plus 1 mM EDTA), centrifuged and the supernatant was used for the assay. To determine the superoxide generation in the cell lysate, the supernatant was incubated with 10 μM drug and 10 μM cytochrome c, with or without 1U SOD to determine SOD inhibitable rate. The specificity of thioredoxin mediated superoxide generation in the supernatant was detected by pre-incubation of cell lysates with anti-human thioredoxin antibody (American Diagnostica, Greenwich, Conn.) for 15 min. All reactions were performed in triplicate. The reduction of ferricytochrome c was measured both in kinetic and end point mode with path check on for 1 hr duration at a wavelength of 550 nm using a Spectramax 190 plate reader (Molecular Devices). Total protein was quantified using Bradford protein assay (Biorad) and the superoxide generation was determined per milligram of protein in the extracts.

[4] = cited from earlier work
[5] = molecular target: T2, E. coli thioredoxin reductase-thioredoxin system (Escherichia coli, UniProt P0A9P4); assay: Superoxide detection by cytochrome c reduction assay with thioredoxin system; type: biochemical
T2 construct: purchased American Diagnostica Inc (thioredoxin reductase); Promega Inc (thioredoxin)
T2 sequence (P0A9P4 2-321): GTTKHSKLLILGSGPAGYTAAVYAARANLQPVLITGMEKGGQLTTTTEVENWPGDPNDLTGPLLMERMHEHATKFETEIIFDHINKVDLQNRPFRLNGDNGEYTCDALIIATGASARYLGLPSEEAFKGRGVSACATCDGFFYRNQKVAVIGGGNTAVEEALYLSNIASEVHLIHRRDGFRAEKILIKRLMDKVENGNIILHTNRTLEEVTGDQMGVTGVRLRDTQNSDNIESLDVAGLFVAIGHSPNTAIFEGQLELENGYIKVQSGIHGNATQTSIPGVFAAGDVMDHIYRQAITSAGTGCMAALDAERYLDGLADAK
Protocol: Superoxide detection by cytochrome c reduction assay. Superoxide (O2—) generated in the process of redox-cycling was detected by SOD inhibitable rate of ferricytochrome c reduction (Das et al., 2000). The reaction mixture contained 0.05 M potassium phosphate buffer (pH 7.78), 1 mM EDTA, 10 μM cytochrome c and 200 μM NADPH. […] The rate of […] of cytochrome c was measured at 550 nm for 0-15 minutes using Shimadzu UV-1601PC in kinetic mode. Reaction blank contained potassium phosphate buffer, cytochrome c and NADPH with or without SOD, and controls included 0.35-0.7 μg TR and /or Trx in buffer. All reactions were performed in triplicate.

E. coli thioredoxin = molecular target: T3, E. coli thioredoxin (Escherichia coli, UniProt P0AA25); assay: Thioredoxin redox state by carboxymethylation and western analysis; type: biochemical; settings: TR and doxorubicin
T3 construct: purchased Promega Inc (thioredoxin); American Diagnostica Inc (thioredoxin reductase)
T3 sequence (P0AA25 2-109): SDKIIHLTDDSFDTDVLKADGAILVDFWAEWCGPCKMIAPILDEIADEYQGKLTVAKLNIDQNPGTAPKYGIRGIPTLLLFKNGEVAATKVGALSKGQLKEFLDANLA
Protocol: Carboxymethylation of thioredoxin. In order to analyze the possible role of thioredoxin in the redox-cycling of anthracyclines the redox status of thioredoxin was determined by carboxymethylation at the end of assay. Carboxymethylation was done as described previously (Das et al., 1997). Equal volume of carboxymethylation buffer (0.1 M Tris; pH 8.8, 12 mg/ml iodoacetic acid, 3 mM EDTA, 7 M guanidine hydrochloride, and 0.5% Triton X-100, equilibrated with nitrogen for 1 h) was added and incubated at 37° C. in the dark for 45 min. After incubation the excess reagent was removed using Sephadex G-25 spin column, and the elute was used for western blot detection of thioredoxin.
Western analysis of thioredoxin redox state. […] The protein was transferred to PVDF membrane using a miniprotein transblot apparatus (Bio-Rad). The PVDF membrane was washed and incubated with mouse anti-E. coli Trx IgG (MBL, Nagoya, Japan). After washing, the blot was incubated with anti Mouse IgG- horseradish peroxidase conjugate for 1 h at room temperature. Binding of secondary antibody was detected using an enhanced chemiluminescence (ECL Plus) detection system (Amersham Pharmacia Biotech, Piscataway, N.J.). Western blot was quantified using densitometric analysis software (NIH Image 1.61).

A549 cells [6] = settings: E. coli thioredoxin 32 μM 16 hr followed by daunomycin 1 μM 4 hr
Excerpt: TUNEL assay. Apoptotic cells were detected using In Situ Cell Death detection, POD kit (Roche Molecular Biochemicals, Indianapolis, Ind.). Apoptotic DNA strand breaks were identified by labeling 3′-OH termini with fluorescein-dUTP using Terminal deoxy Transferase as per manufacturer's protocol. For this assay cells were allowed to adhere overnight in chambered glass slides (Nunc) to a final density of 25,000 cells per well. Followed by treatment with the appropriate concentration of drugs the media was removed and washed twice with PBS containing 1% BSA and the cells fixed in 4% paraformaldehyde for 30 min and washed with PBS containing 1% BSA. The cells were then permeabilized with 0.1% Triton X-100 in 0.1% sodium citrate for 2 min on ice and washed twice with PBS containing 1% BSA. The labeling reaction was performed using FITC labeled dUTP along with other nucleotides by terminal deoxynucleotidyl transferase for 60 mins in dark at 37° C. in humidified chamber. The cells were washed with PBS-1% BSA, mounted onto a slide, and the incorporated fluorescein-dUTP was analyzed using Nikon laser confocal microscope.

p53 in A549 cells = assay: EMSA of p53 DNA binding; type: cell-based, human; settings: E. coli Trx 32 μM 16 h followed by daunomycin 1 μM 4 h
Protocol: Nuclear Extract preparation. Nuclear extract was prepared as described previously (Das, 2001). […] The extracts were then centrifuged at 14,000 rpm for 25 min and the supernatant was saved as nuclear extract in −70° C. for further experiments. Protein was quantified using Bradford protein assay (Biorad).
Electrophoretic Mobility shift assay (EMSA). For the EMSA the p53 consensus oligonucleotide was obtained from Genosys 5′-[…]-3′ (SEQ ID NO:9) and end labeled using T4 Poly nucleotide kinase (New England Biolabs, Beverly, Mass.) and [γ-^32P] ATP (Perkin Elmer, Boston, Mass.) in 10× kinase buffer supplied with the enzyme. […] The nuclear protein was separated by electrophoresis using 4% native polyacrylamide gel and 0.25× of TBE (Tris-Borate-EDTA) as running buffer. The gels were dried and exposed to Kodax Biomax X-ray film overnight.

A549 cells [7] = assay: ROS detection by DCF-DA fluorescence; type: cell-based, human
Protocol: In situ detection of superoxide by fluorescent probe DiCarboxyFluorescein-DiAcetate (DCF-DA). […] Cells were pre-incubated with 20 μM DCF-DA (Sigma, St. Louis, Mo.) in 20 mM Hepes in Phosphate Buffered Saline (PBS) containing bovine serum albumin (BSA, 5 mg/ml) at 37° C. for 30 min followed by washing with PBS buffer, and the drug was added and observed for 10-15 min in a Nikon laser confocal microscope using laser beam wavelength 488 nm analyzed by Ultraview software (Perkin-Elmer).

[8] = molecular target: T4, human thioredoxin reductase (Homo sapiens, UniProt Q16881); settings: cited from earlier work
T4 sequence (Q16881 151-649 limits assumed): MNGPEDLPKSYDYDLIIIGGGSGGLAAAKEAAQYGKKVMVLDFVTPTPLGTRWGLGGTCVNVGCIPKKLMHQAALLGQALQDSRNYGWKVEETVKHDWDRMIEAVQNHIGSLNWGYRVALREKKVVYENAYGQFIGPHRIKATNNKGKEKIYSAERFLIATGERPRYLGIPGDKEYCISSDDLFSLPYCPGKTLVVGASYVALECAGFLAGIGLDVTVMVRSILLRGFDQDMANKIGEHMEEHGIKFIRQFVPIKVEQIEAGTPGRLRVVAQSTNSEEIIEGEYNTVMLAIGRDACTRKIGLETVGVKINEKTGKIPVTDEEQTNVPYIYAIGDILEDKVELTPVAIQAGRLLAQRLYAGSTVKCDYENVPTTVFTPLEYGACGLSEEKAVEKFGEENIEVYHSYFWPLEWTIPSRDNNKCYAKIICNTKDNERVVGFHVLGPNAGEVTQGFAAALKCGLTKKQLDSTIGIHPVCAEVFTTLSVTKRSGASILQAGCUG

Molecule	DCF-DA fluorescence (oxidation of DCF-DA) [1]	SOD inhibitable O2— generation [2]	O2— production [3]	excreted into the urine ([4]; in vivo)	elimination half-life ([4]; intravenous)	absorption ([4]; oral)	levels of O2— generated ([5]; drug 10 μM with thioredoxin reductase alone)	SOD inhibitable rate of ferricytochrome c reduction ([5]; drug alone, 10 μM)	rate of superoxide generation as compared to daunomycin ([5]; thioredoxin reductase alone or thioredoxin reductase-thioredoxin system, 10 μM drug)	level of Trx-S2 (oxidized thioredoxin) (E. coli thioredoxin; 28.7% without doxorubicin) [%]	level of reduced thioredoxin (E. coli thioredoxin; Trx, 71.3% in thioredoxin-thioredoxin reductase system only) [%]	TUNEL positive nuclei (A549 cells [6])	p53 DNA binding (p53 in A549 cells)	levels of O2— generated ([5]; addition of 3.2 μM Trx to thioredoxin reductase with daunomycin or doxorubicin)	rate of O2— generation with doxorubicin ([5]; thioredoxin from 1.6 to 6.4 μM, 0.35 μg thioredoxin reductase, 10 μM doxorubicin)	ROS generation (DCF-DA) (A549 cells [7]; E. coli thioredoxin only (32 μM, 16 hr))	ROS generation (DCF-DA) (A549 cells [7]; pretreated with E. coli thioredoxin (32 μM, 16 hr) followed by 1 μM daunomycin)	Km as a substrate for human thioredoxin reductase [8] [µM]
COc1cccc2c1C(=O)c1c(O)c3c(c(O)c1C2=O)C[C@@](O)(C(=O)CO)C[C@@H]3O[C@H]1C[C@H](N)[C@H](O)[C@H](C)O1 [doxorubicin, 5,12-Naphthacenedione, (8 s-cis)-10-[(3-amino-2,3,6-trideoxy-a-L-lyxo-hexopyranosyl)oxy]-7,8,9,10-tetrahydro-6,8,11-trihydroxy-8-(hydroxyacetyl)-1-methoxy-hydrochloride]	enhanced fluorescence	generated O2—	significantly higher level of O2—	a few percent	about 30 hr	poorly absorbed	significantly higher levels of O2—	did not show significant level	two fold increase	53	47	–	–	–	–	–	–	–
E. coli thioredoxin: E. coli thioredoxin obtained from Promega; sequence of SEQ ID NO:4	–	–	–	–	–	–	–	–	–	–	–	increase in TUNEL positive nuclei	increased p53 DNA binding	further enhanced the levels of O2—	proportional increase in the rate of O2— generation	No ROS were detected	significantly higher level of ROS generation	35

— patent US20050208037A1, “Thioredoxin increases redox-cycling of anticancer agents thereby sensitizes cancer cells to apoptosis” (Board of Regents, The University of Texas System, priority 2003, published 2005)
